Data published in PubChem BioAssay AID1963848 (Molecular Pharmacology Branch, DTP, NCI, 2024).
Where “and” joins values, the source holds several entries; their conditions need not be identical. Identical values can stand only once.

Test system: 379773-124-R-J2-PDC spheroid viability
Assay: Anticancer human tumor 379773-124-R-J2-PDC patient-derived endometrial carcinoma cell line growth inhibition [POLQ]
Conditions: spheroids with HUVEC and MSC; for viability, T/C: stronger effect = lower value
In short: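 Complex spheroid viability model combining PDC tumour cells with endothelial (HUVEC) and MSC stromal cells. Novobiocin, ART-558 or RP6685 were tested singly and in combination with standard and investigational anticancer drugs. Each was titrated in half-log steps from near clinical Cmax, or from 10 microM where Cmax was unknown.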

[1] = curve of first compound, second compound 0.0316 µM
[2] = curve of first compound, second compound 0.1 µM
[3] = curve of first compound, second compound 0.316 µM
[4] = curve of first compound, second compound 1 µM
[5] = curve of first compound, second compound 3.16 µM
[6] = curve of first compound, second compound 10 µM
[7] = second compound 0.0316 µM, first compound 0.0316 µM
[8] = second compound 0.0316 µM, first compound 0.1 µM
[9] = second compound 0.0316 µM, first compound 0.316 µM
[10] = second compound 0.0316 µM, first compound 1 µM
[11] = second compound 0.0316 µM, first compound 3.16 µM
[12] = second compound 0.0316 µM, first compound 10 µM
[13] = second compound 0.1 µM, first compound 0.0316 µM
[14] = second compound 0.1 µM, first compound 0.1 µM
[15] = second compound 0.1 µM, first compound 0.316 µM
[16] = second compound 0.1 µM, first compound 1 µM
[17] = second compound 0.1 µM, first compound 3.16 µM
[18] = second compound 0.1 µM, first compound 10 µM
[19] = second compound 0.316 µM, first compound 0.0316 µM
[20] = second compound 0.316 µM, first compound 0.1 µM
[21] = second compound 0.316 µM, first compound 0.316 µM
[22] = second compound 0.316 µM, first compound 1 µM
[23] = second compound 0.316 µM, first compound 3.16 µM
[24] = second compound 0.316 µM, first compound 10 µM
[25] = second compound 1 µM, first compound 0.0316 µM
[26] = second compound 1 µM, first compound 0.1 µM
[27] = second compound 1 µM, first compound 0.316 µM
[28] = second compound 1 µM, first compound 1 µM
[29] = second compound 1 µM, first compound 3.16 µM
[30] = second compound 1 µM, first compound 10 µM
[31] = second compound 3.16 µM, first compound 0.0316 µM
[32] = second compound 3.16 µM, first compound 0.1 µM
[33] = second compound 3.16 µM, first compound 0.316 µM
[34] = second compound 3.16 µM, first compound 1 µM
[35] = second compound 3.16 µM, first compound 3.16 µM
[36] = second compound 3.16 µM, first compound 10 µM
[37] = second compound 10 µM, first compound 0.0316 µM
[38] = second compound 10 µM, first compound 0.1 µM
[39] = second compound 10 µM, first compound 0.316 µM
[40] = second compound 10 µM, first compound 1 µM
[41] = second compound 10 µM, first compound 3.16 µM
[42] = second compound 10 µM, first compound 10 µM
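Also: spheroids exposed to drugs for seven days before readout.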
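For viability, T/C in this document: percent viability relative to DMSO vehicle control taken as 100%.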

C=CC(=O)N1CCN(c2nc(=O)n(-c3c(C)ccnc3C(C)C)c3nc(-c4c(O)cccc4F)c(F)cc23)C(C)C1 (stereo not given)
viability, T/C (compound 0.0316 µM): 97.8% and 95.1% and 86.4% | viability, T/C (compound 0.1 µM): 86.7% and 106% and 91.7% | viability, T/C (compound 0.316 µM): 70% and 103% and 89.9% | viability, T/C (compound 1 µM): 86.1% and 93.1% and 87.7% | viability, T/C (compound 3.16 µM): 88.5% and 95.5% and 97.6% | viability, T/C (compound 10 µM): 78.4% and 95.8% and 85.6% | IC50 (curve of compound): > 10 µM

CC[C@@]1(O)C(=O)OCc2c1cc1n(c2=O)Cc2cc3c(CN(C)C)c(O)ccc3nc2-1
viability, T/C (compound 0.000316 µM): 86.7% and 95.5% and 87.2% | viability, T/C (compound 0.001 µM): 82.9% and 87.3% and 91.6% | viability, T/C (compound 0.00316 µM): 97.8% and 92.2% and 75.9% | viability, T/C (compound 0.01 µM): 78.5% and 86.5% and 81.9% | viability, T/C (compound 0.0316 µM): 45.8% and 43% and 45.2% | viability, T/C (compound 0.1 µM): 14.7% and 26.1% and 10.6% | IC50 (curve of compound): 0.0272 µM and 0.0263 µM and 0.0271 µM

CCCS(=O)(=O)Nc1ccc(F)c(C(=O)c2c[nH]c3ncc(-c4ccc(Cl)cc4)cc23)c1F
viability, T/C (compound 0.0316 µM): 95.9% and 86.2% and 78.9% | viability, T/C (compound 0.1 µM): 93.8% and 93.3% and 98.6% | viability, T/C (compound 0.316 µM): 87.6% and 96.1% and 91.3% | viability, T/C (compound 1 µM): 87% and 91% and 69% | viability, T/C (compound 3.16 µM): 84.2% and 84% and 74.1% | viability, T/C (compound 10 µM): 57.6% and 51.9% and 57.4% | IC50 (curve of compound): > 10 µM

C=CC(=O)N1CCN(c2nc(=O)n(-c3c(C)ccnc3C(C)C)c3nc(-c4c(O)cccc4F)c(F)cc23)C(C)C1 (stereo not given) + Nc1ccc(C#CCN(C(=O)Cc2ncc(C(F)(F)F)cc2C(F)(F)F)c2ccc(F)cc2)nn1
IC50 [1]: > 10 µM | IC50 [2]: > 10 µM | IC50 [3]: > 10 µM | IC50 [4]: > 10 µM | IC50 [5]: > 10 µM | IC50 [6]: > 10 µM | viability, T/C [7]: 102% | viability, T/C [8]: 91.5% | viability, T/C [9]: 103% | viability, T/C [10]: 94.7% | viability, T/C [11]: 114% | viability, T/C [12]: 96.1% | viability, T/C [13]: 90% | viability, T/C [14]: 89.1% | viability, T/C [15]: 104% | viability, T/C [16]: 98.7% | viability, T/C [17]: 92% | viability, T/C [18]: 91.7% | viability, T/C [19]: 95.4% | viability, T/C [20]: 93.5% | viability, T/C [21]: 90.2% | viability, T/C [22]: 86.4% | viability, T/C [23]: 94.1% | viability, T/C [24]: 100% | viability, T/C [25]: 89.2% | viability, T/C [26]: 85.5% | viability, T/C [27]: 99.6% | viability, T/C [28]: 93% | viability, T/C [29]: 98.8% | viability, T/C [30]: 103% | viability, T/C [31]: 91.9% | viability, T/C [32]: 90.9% | viability, T/C [33]: 101% | viability, T/C [34]: 90.3% | viability, T/C [35]: 95% | viability, T/C [36]: 93.3% | viability, T/C [37]: 88.3% | viability, T/C [38]: 91.4% | viability, T/C [39]: 93.3% | viability, T/C [40]: 91.4% | viability, T/C [41]: 94.9% | viability, T/C [42]: 98.2%

COC1C(OC(N)=O)C(O)C(Oc2ccc3c(O)c(NC(=O)c4ccc(O)c(CC=C(C)C)c4)c(=O)oc3c2C)OC1(C)C (stereo not given)
viability, T/C (compound 0.0316 µM): 83.6% [middle of 13 runs] | viability, T/C (compound 0.316 µM): 88.3% [middle of 13 runs] | viability, T/C (compound 3.16 µM): 89.8% [middle of 13 runs] | viability, T/C (compound 10 µM): 81.1% [middle of 13 runs] | IC50 (compound alone, run of 10/31/2023): > 10 µM

CNCc1ccc(-c2[nH]c3cc(F)cc4c3c2CCNC4=O)cc1 + COC1C(OC(N)=O)C(O)C(Oc2ccc3c(O)c(NC(=O)c4ccc(O)c(CC=C(C)C)c4)c(=O)oc3c2C)OC1(C)C
IC50 [1]: > 10 µM | IC50 [2]: > 10 µM | IC50 [3]: > 10 µM | IC50 [4]: > 10 µM | IC50 [5]: > 10 µM | IC50 [6]: > 10 µM | viability, T/C [7]: 104% | viability, T/C [8]: 86.1% | viability, T/C [9]: 84.5% | viability, T/C [10]: 74.5% | viability, T/C [11]: 82.5% | viability, T/C [12]: 78.1% | viability, T/C [13]: 102% | viability, T/C [14]: 86.7% | viability, T/C [15]: 90.5% | viability, T/C [16]: 88.2% | viability, T/C [17]: 87.8% | viability, T/C [18]: 82.9% | viability, T/C [19]: 95.5% | viability, T/C [20]: 96.8% | viability, T/C [21]: 87.8% | viability, T/C [22]: 93.2% | viability, T/C [23]: 77.2% | viability, T/C [24]: 78.4% | viability, T/C [25]: 91.8% | viability, T/C [26]: 98.2% | viability, T/C [27]: 78.1% | viability, T/C [28]: 86.1% | viability, T/C [29]: 82.6% | viability, T/C [30]: 67.3% | viability, T/C [31]: 79.8% | viability, T/C [32]: 79.9% | viability, T/C [33]: 76.2% | viability, T/C [34]: 85.1% | viability, T/C [35]: 80.1% | viability, T/C [36]: 78.3% | viability, T/C [37]: 80.3% | viability, T/C [38]: 81.7% | viability, T/C [39]: 96.5% | viability, T/C [40]: 75.5% | viability, T/C [41]: 76.7% | viability, T/C [42]: 65.7%
